pIC50: −log10 of the molar value. Calls of active or inactive are those of the source. No cut-off for these calls is given here.
Assays:
[1] = target: CDK7/Cyclin H/MNAT1 (Homo sapiens) (UniProt P51946+P50613+P51948); test: Inhibition of CDK7/Cyclin H/MAT1 (unknown origin) at 100 nM preincubated for 10 mins followed by substrate/ATP measured after 60 mins by ADP-Glo assay relative to control; format: protein-complex assay; details: time 70.0 min
[2] = Clearance in BALB/c mouse at 2 mg/kg, iv; format: ADME, organism-based; details: in vivo
[3] = Toxicity in BALB-c nude mouse xenografted with human NCI-H1975 cells assessed as pathological damage in spleen at 15 mg/kg, iv administered on every two days by H and E staining based analysis; format: organism-based; details: in vivo
[4] = Metabolic stability in mouse liver microsomes assessed as half life measured for 5 to 60 mins by LC-MS/MS analysis; format: ADME, Microsome; details: time 5-60 min
[5] = AUC (0 to infinity) in Sprague-Dawley rat at 20 mg/kg, po; format: ADME, organism-based; details: in vivo
[6] = test system: Lung adenocarcinoma organoid; test: Anti-tumor activity against Osimertinib-resistant patient (#0085)-derived human Lung adenocarcinoma organoid assessed as inhibition of cell viability measured after 96 hrs relative to control; format: functional, Neoplasm
CDK9/cyclin T1 = CDK9/cyclin T1 (Homo sapiens, UniProt P50750); test: Inhibition of CDK9/cyclin T1 (unknown origin) preincubated for 10 mins followed by substrate/ATP measured after 60 mins by ADP-Glo assay; format: protein-complex assay
CDK9/cyclin T1, sequence (O60563 whole entry): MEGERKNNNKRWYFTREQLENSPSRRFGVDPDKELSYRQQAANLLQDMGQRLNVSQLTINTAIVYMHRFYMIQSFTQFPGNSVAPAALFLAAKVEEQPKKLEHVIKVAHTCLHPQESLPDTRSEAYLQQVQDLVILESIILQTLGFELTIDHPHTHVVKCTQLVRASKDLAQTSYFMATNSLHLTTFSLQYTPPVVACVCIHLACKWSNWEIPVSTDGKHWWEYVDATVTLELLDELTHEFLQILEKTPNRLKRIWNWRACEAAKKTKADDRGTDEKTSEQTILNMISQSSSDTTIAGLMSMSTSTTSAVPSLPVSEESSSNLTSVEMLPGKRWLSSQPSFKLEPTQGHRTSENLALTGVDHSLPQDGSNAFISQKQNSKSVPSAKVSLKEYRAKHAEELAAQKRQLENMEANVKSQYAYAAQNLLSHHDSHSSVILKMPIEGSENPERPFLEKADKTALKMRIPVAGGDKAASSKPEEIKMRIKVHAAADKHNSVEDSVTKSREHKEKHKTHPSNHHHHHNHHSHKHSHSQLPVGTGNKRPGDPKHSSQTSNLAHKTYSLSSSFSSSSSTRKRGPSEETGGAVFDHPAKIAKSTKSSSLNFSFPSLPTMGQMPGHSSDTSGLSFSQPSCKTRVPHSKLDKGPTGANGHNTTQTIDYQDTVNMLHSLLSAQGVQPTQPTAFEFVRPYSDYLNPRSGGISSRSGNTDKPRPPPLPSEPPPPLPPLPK
CDK9/cyclin T1, sequence (P50750 whole entry): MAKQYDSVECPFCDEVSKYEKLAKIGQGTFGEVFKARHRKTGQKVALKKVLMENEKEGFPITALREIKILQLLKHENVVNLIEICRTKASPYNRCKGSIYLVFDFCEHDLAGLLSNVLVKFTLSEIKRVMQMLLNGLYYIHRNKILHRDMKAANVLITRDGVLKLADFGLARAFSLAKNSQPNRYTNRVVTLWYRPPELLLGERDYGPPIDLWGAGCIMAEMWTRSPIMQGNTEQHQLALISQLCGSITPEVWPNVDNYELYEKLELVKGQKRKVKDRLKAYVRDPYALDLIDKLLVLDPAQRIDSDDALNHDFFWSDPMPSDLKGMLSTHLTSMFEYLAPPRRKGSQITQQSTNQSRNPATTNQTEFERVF

[7] = test system: Osimertinib-resistant NCI-H1975 cell; test: Selectivity ratio of IC50 for anti-proliferative activity against human Osimertinib-resistant NCI-H1975 cells to IC50 for anti-proliferative activity against human Osimertinib-resistant NCI-H1975 cells in presence of JQ1; format: functional
[8] = test system: Osimertinib-resistant HCC827 cell; test: Inhibition of Hippo signaling in human Osimertinib-resistant HCC827 cells in presence of JQ1 by KEGG analysis; format: cell-based
[9] = Half life in BALB/c mouse at 15 mg/kg, po; format: ADME, organism-based; details: in vivo
NCI-H596 = test: Anti-proliferative activity against human NCI-H596 cells assessed as cell inhibition measured after 72 hrs by MTT assay; format: functional, cell-based; details: NCI-H596, 72 h
[10] = target: CDK3/Cyclin E (Homo sapiens) (UniProt P24864+Q00526); test: Inhibition of CDK3/Cyclin E1 (unknown origin) at 100 nM preincubated for 10 mins followed by substrate/ATP measured after 60 mins by ADP-Glo assay relative to control; format: protein-complex assay; details: time 70.0 min
CDK3/Cyclin E (Homo sapiens), sequence (P24864 whole entry, looked up): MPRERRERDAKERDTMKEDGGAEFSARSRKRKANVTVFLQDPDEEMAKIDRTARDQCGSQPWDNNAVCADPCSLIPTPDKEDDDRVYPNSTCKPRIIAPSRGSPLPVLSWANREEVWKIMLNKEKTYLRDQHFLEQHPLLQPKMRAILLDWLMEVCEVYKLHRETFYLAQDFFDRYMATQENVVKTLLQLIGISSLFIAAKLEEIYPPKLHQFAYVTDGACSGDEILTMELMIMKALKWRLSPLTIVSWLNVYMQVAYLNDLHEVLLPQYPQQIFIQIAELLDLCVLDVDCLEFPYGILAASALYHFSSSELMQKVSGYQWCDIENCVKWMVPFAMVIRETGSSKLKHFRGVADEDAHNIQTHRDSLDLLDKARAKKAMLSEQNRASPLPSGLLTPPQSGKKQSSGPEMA
CDK3/Cyclin E (Homo sapiens), sequence (Q00526 whole entry, looked up): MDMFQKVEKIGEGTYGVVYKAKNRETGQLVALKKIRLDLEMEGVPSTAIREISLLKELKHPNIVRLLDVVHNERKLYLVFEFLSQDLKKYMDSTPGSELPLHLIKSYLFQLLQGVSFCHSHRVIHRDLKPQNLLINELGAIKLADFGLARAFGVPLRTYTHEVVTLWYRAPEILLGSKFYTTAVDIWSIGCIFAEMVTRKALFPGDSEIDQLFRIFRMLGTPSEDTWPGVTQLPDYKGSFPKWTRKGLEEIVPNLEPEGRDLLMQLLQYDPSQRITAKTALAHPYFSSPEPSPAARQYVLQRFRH

Mus musculus = test: In vivo inhibition of CDK9 in BALB-c nude mouse xenografted with human Osimertinib-resistant HCC827 cells assessed as decrease in Mcl-1 level in tumor tissue at 5 mg/kg, iv in presence of JQ1 by Western blot analysis; format: functional, organism-based
HCC827 [11] = test: Anti-proliferative activity against human HCC827 cells assessed as cell inhibition measured after 72 hrs by MTT assay; format: functional, cell-based; details: HCC827, 72 h
[12] = test system: Osimertinib-resistant HCC827 cell; test: Inhibition of colony formation in human Osimertinib-resistant HCC827 cells at 12.5 nM measured after 14 days in presence of JQ1 by crystal violet staining based analysis; format: functional; details: time 14.0 day
[13] = C0 in Sprague-Dawley rat at 2 mg/kg, iv; details: in vivo
[14] = Toxicity in BALB-c nude mouse xenografted with human NCI-H1975 cells assessed as pathological damage in heart at 15 mg/kg, iv administered on every two days by H and E staining based analysis; format: organism-based; details: in vivo
[15] = test system: Osimertinib-resistant HCC827 cell; test: Downregulation of c-Myc level in human Osimertinib-resistant HCC827 cells in presence of JQ1 by RNA-Seq analysis; format: functional, cell-based
[16] = AUC (0 to infinity) in BALB/c mouse at 15 mg/kg, po; format: ADME, organism-based; details: in vivo
[17] = Metabolic stability in human liver microsomes assessed as clearance measured for 5 to 60 mins by LC-MS/MS analysis; format: ADME, Microsome; details: time 5-60 min, read-out: CLH
[18] = Drug concentration in plasma of BALB-c nude mouse xenografted with human NCI-H1975 cells at 15 mg/kg, iv measured after 30 mins by LC-MS/MS analysis; format: ADME, organism-based
[19] = target: Cyclin-dependent kinase 4/cyclin D1 (Homo sapiens) (UniProt P11802+P24385); test: Inhibition of CDK4/Cyclin D1 (unknown origin) at 100 nM preincubated for 10 mins followed by substrate/ATP measured after 60 mins by ADP-Glo assay relative to control; format: protein-complex assay; details: time 70.0 min
HCC827 [20] = test: Anti-proliferative activity against human HCC827 cells assessed as cell inhibition measured after 72 hrs in presence of 250 nM JQ1 by MTT assay; format: functional, cell-based; details: HCC827, 72 h
[21] = test system: Lung adenocarcinoma organoid; test: Anti-tumor activity against patient (#2223)-derived human Lung adenocarcinoma organoid assessed as inhibition of cell viability measured after 96 hrs relative to control; format: functional, Neoplasm
[22] = test system: Osimertinib-resistant HCC827 cell; test: Inhibition of cell cycle regulation in human Osimertinib-resistant HCC827 cells by KEGG analysis; format: functional, cell-based
[23] = test system: Osimertinib-resistant HCC827 cell; test: Antitumor activity against human Osimertinib-resistant HCC827 cells xenografted in BALB-c nude mouse assessed as tumor growth inhibition at 5 mg/kg, iv; format: functional, organism-based
[24] = Metabolic stability in dog liver microsomes assessed as clearance measured for 5 to 60 mins by LC-MS/MS analysis; format: ADME, Canis lupus familiaris, Microsome; details: time 5-60 min, read-out: CLH
[25] = Anti-proliferative activity against human Osimertinib-resistant HCC827 cells assessed as cell inhibition measured after 72 hrs in presence of 500 nM JQ1 by MTT assay; format: functional, cell-based
[26] = Antitumor activity against human Osimertinib-resistant HCC827 cells xenografted in BALB-c nude mouse assessed as tumor growth inhibition at 5 mg/kg, iv in presence of JQ1 relative to control; format: functional; details: Osimertinib-resistant HCC827 cell, read-out: TGI
[27] = test system: Osimertinib-resistant NCI-H1975 cell; test: Anti-proliferative activity against human Osimertinib-resistant NCI-H1975 cells assessed as cell inhibition measured after 72 hrs by MTT assay; format: functional, cell-based
[28] = Metabolic stability in monkey liver microsomes assessed as half life measured for 5 to 60 mins by LC-MS/MS analysis; format: ADME, Macaca mulatta, Microsome; details: rhesus monkey, time 5-60 min
[29] = test system: Osimertinib-resistant NCI-H1975 cell; test: Induction of apoptosis in human Osimertinib-resistant NCI-H1975 cells assessed as necrotic cells at 2 uM incubated for 16 hrs by Annexin V-FITC/PI staining based flow cytometry (reference value: 1.17 %); format: functional
[30] = Metabolic stability in mouse liver microsomes assessed as clearance measured for 5 to 60 mins by LC-MS/MS analysis; format: ADME, Microsome; details: time 5-60 min, read-out: CLH

In the case of CC(=O)N1CCC(NC(=O)c2ccc3cc2OCCCCCCOc2cc(ccc2F)-c2nc(ncc2F)N3)CC1, the inhibition [1] was 11.9%, the clearance [2] was 83.3 mL/min/kg and the Activity [3] was “Non-toxic”. The half-life [4] was 64.2 min, the AUC(0-inf) [5] was 5960 ng·h/mL and the Imax [6] was >98%. The pIC50 (CDK9/cyclin T1) was 8.92, the “Ratio IC50” value [7] was 10 and the inhibition [8] was “Active”. For the same compound, the half-life [9] was 210 min, the pIC50 (NCI-H596) was 7.05 and the inhibition [10] was 9.68%. The inhibition (Mus musculus) was “Active”, the pIC50 (HCC827 [11]) was 6.82 and the inhibition [12] was “Active”. The C0 [13] was 2527 µg/L, the Activity [14] was “Non-toxic” and the Activity [15] was “Active”. For the same compound, the AUC(0-inf) [16] was 766 ng·h/mL, the microsomal CLint [17] was 10.8 µL/min/mg and the concentration at 0.5 h [18] was 2450 ng/mL. The inhibition [19] was 25.7%, the pIC50 (HCC827 [20]) was 7.71 and the Imax [21] was 99.9%. For the same compound, the inhibition [22] was “Active”, the inhibition [23] was “inactive” and the microsomal CLint [24] was 18.4 µL/min/mg. For the same compound, the pIC50 [25] was 8.28, the inhibition in vivo at 5 mg/kg [26] was 71.5% and the pIC50 [27] was 7.30. It also gave a half-life [28] of 59.1 min, an Activity [29] of 0.97% and a microsomal CLint [30] of 21.6 µL/min/mg.

From ChEMBL document CHEMBL6153135, “Rational Design of a Potent, Selective, and Metabolically Stable CDK9 Inhibitor to Counteract Osimertinib Resistance through Mcl-1 Suppression and Enhanced BRD4 Co-Targeting” (J Med Chem, 2025)
